# Assay results as given in US20200064357A1, “METHODS FOR DETERMINING AND MONITORING GASTROINTESTINAL INFLAMMATION” (Protagonist Therapeutics, Inc., priority 2016, published 2020).
# Key:
# Assay type in all cases: in vivo
# Sprague-Dawley rats [1] = experiment: Distal colon markers in TNBS-induced rat colitis: MPO, IL-17A, IL-22 by ELISA, pStat3 by IHC (Example E4)
# Protocol: (§1) In the first model, acute colitis was induced in Sprague-Dawley rats by a single intra-rectal instillation of TNBS followed by efficacy analysis at day seven. The animals were grouped into sham+vehicle (PO TID), TNBS+vehicle (PO TID), anti-IL23p19 antibody (4 mg/kg/day IP, Day −1 and Day 3), and Peptide 993 treatment at 9, 28, or 61 mg/kg/day (PO TID+in drinking water). Sham indicates animals not treated with TNBS.
# In addition, myeloperoxidase (MPO), IL-17A, and IL-22 detected from sampled tissue were quantified by enzyme-linked immunosorbent assay (ELISA), and the results are shown in FIGS. 10A-10C. The percentage of phosphorylated Signal Transducer and Activator of Transcription 3 (Stat3) was normalized to the area of the distal colon quantified by immuno-histochemistry (IHC) (FIG. 10D), and the micrographs shown in FIG. 10E are representative images from each indicated group for IHC analysis of pStat3 expression. Values shown as mean±SD. Statistical significance was assessed by One-way ANOVA with post-hoc Dunnett's vs. Vehicle control: *p≤0.05; **p≤0.01; ***p≤0.001; ****p≤0.0001; ns, not significant.
# For the pSTAT3 assays, colon tissue samples were processed routinely, sectioned at approximately 3-5 microns, fixed in 10% neutral buffered formaldehyde, processed in paraffin, and immunolabeled with an anti-pSTAT3 primary antibody that binds STAT3 phosphorylated at Tyrosine 705 (Abcam, Cat. No. ab76315 PUR). pSTAT3 immunolabel as a percentage of total areas was measured using Visiopharm© image analysis software. Image analysis involved outlining the colon tissue as a region of interest (ROI), then an automated thresholding method was utilized for the classification of the pSTAT3 positive immunolabel. After classification, the total tissue area within the ROI was calculated, along with the count of pSTAT3 positive cells and the area (in microns) of the pSTAT3 positive cells. Lastly, the pSTAT3 immunolabel percentage of the total tissue area was calculated.
# The details of the pSTAT3 Image Analysis Protocol were as follows:
# 1. ROI • a. Tissue was outlined, and non-colon tissues were excluded.
# 2. Pre-processing • a. Image was converted into grayscale-pixel values processed to be 0-255 • b. Grayscale image was filtered into two channels: • i. The DAB (or pSTAT3 positive) channel with pixels associated with the brown DAB staining; and • ii. The hematoxylin channel with pixels associated with the tissue area not stained with DAB (includes all tissue area and background staining).
# 3. Analysis & Classification • a. Algorithm using a “threshold” method was used to classify the tissue area within the ROI. • i. Threshold of the DAB channel was set to classify the positive pSTAT3 stained cells as any/all pixels (from the DAB channel of the pre-processed image) with values between 0-135. A green label was applied to these positively classified cells. • 1. Pixels with values outside the threshold of 0-135 were considered to be part of the tissue area (within the ROI). • b. […]
# 4. […] The total tissue area (within the ROI) was calculated-unit was in microns. • b. The total pSTAT3 positive area was calculated-unit is in microns. • c. The “count” of pSTAT3 positive cells was calculated. • d. The fraction of pSTAT3 positive cells was calculated by dividing the pSTAT3 positive area by the total tissue area-unit was in microns. • e. The nuclear density per square millimeter was calculated, simply to change the units from microns to square millimeter.
# Sprague-Dawley rats [2] = experiment: Disease pathology in TNBS-induced rat colitis: colon weight/length, colonic score, histology (Example E4)
# Protocol: as §1
# Following treatment, weight and length were determined from entire colon; colonic score was evaluated as sum of adhesion (0-2), stricture (0-3), ulcer (0-5), and colon wall thickness (0-2); histology was evaluated by a pathologist as sum of mucosal/submucosal inflammation (0-5), transmural inflammation (0-5), erosion (0-5), and gland loss (0-5). Values shown as mean±SD (FIGS. 9A-9C). Statistical significance was assessed by One-way ANOVA with post-hoc Dunnett's vs. Vehicle control: **p≤0.01; ***p≤0.001; ****p≤0.0001; ns, not significant.
# Sprague-Dawley rats [3] = experiment: Serum LCN2, TNBS rat colitis model, ELISA (Example E2); settings: per ml of serum, vs vehicle
# Protocol: The animals were grouped into sham, vehicle, and Peptide 993 treatment at 31 mg/kg/day. Feces were collected from the distal colon of rats and were immediately frozen at the time of necropsy. The feces samples were weighed and homogenized in extraction buffer (PBS pH 7.4 containing Pierce Protease Inhibitors, 3× volume:weight). The samples were incubated on ice for 90 minutes, with intermittent vortexing for complete homogenization. After centrifugation at 3000 g at 4 C, the homogenates were transferred to fresh tubes and subjected to another centrifugation at 14000 g at 4 C. The cleared supernatants were saved in multiple aliquots and stored at −80 C until analysis.
# The serum samples were immediately frozen and thawed only once before use in the ELISA. For LCN2, the samples were diluted at different ratios with assay dilution buffer to capture the large variation in concentration amongst the different groups. The dilution ratios used were 1:10 (for sham), 1:1000, 1:2000 and 1:10000 (vehicle and Peptide 993). Fecal Lipocalin2(LCN2)/NGAL analysis:
# Serum samples were analyzed for LCN2 concentration using the above ELISA protocol. Serum samples were used at dilutions ranging from 1:[…] to ensure that the measurements were within the range and sensitivity of the kit. […] Statistical analysis was performed using 1-Way-ANOVA with Dunnetts's multiple comparison.
# Sprague-Dawley rats [4] = experiment: CLDN8 gene expression and colonic score in TNBS-induced rat colitis (Example E5)
# Protocol: The claudin family of proteins are components of the tight junction complex. Through expression analysis and colonic scoring, claudins were analyzed as biomarkers for IBD disease severity. […] CLDN8 gene expression was analyzed in a TNBS-induced rat model of […] following the protocols described in Example E1.
# [5] = TNBS rats, oral treatment, ELISA
# [6] = TNBS rats, day seven, 9, 28 or 61 mg/kg/day PO TID + in drinking water, vs vehicle
# [7] = acute TNBS-induced rat colitis model, oral treatment
compound,measurement,setting,value
"CC(=O)NC(CCCNC(=N)N)C(=O)NC1CCSCC(C(=O)NC(Cc2ccc(OCCN)cc2)C(=O)NC(Cc2ccc3ccccc3c2)C(=O)NC2(C(=O)NC(CCC(=O)O)C(=O)NC(CC(N)=O)C(=O)NC(CC(N)=O)C(N)=O)CCOCC2)NC(=O)C(CCC(N)=O)NC(=O)C(Cc2c[nH]c3ccccc23)NC(=O)C(C(C)O)NC(=O)C(CCC(N)=O)NC1=O (stereo not shown) [Peptide 993, Ac-[(D)-Arg]-cyclo[[Abu]-QTWQC]-[Phe[4-(2-aminoethoxy)]]-[2-Nal]-[4-amino-4-carboxy-tetrahydropyran]-ENN-NH2]","disease-related and IL-23-directed markers in the distal colons (MPO, IL-17A, IL-22, pStat3)","Sprague-Dawley rats [1]; TNBS rats, 9, 28 or 61 mg/kg/day oral, vs vehicle",significant and dose-dependent reduction
same,colonic levels of MPO,Sprague-Dawley rats [1]; [5],decreased
same,"levels of IL-17A, distal colon",Sprague-Dawley rats [1]; [5],significantly reduced
same,"levels of IL-22, distal colon",Sprague-Dawley rats [1]; [5],significantly reduced
same,"levels of pStat3, distal colon","Sprague-Dawley rats [1]; TNBS rats, oral treatment, IHC, percentage of area",restored to control levels
same,colon weight-to-length ratio,Sprague-Dawley rats [2]; [6],significant and dose-dependent reduction
same,histopathological changes in the colon,Sprague-Dawley rats [2]; [6],normalization
same,macroscopic changes in the colon (colonic score),Sprague-Dawley rats [2]; [6],normalization
same,activity compared with neutralizing anti-IL-23p19 monoclonal antibody (4 mg/kg/day IP),Sprague-Dawley rats [2]; [7],comparable
same,disease parameters,Sprague-Dawley rats [2]; [7],significant and dose-dependent attenuation
same,serum LCN2 concentration,Sprague-Dawley rats [3],statistically significant decrease
same,"levels of CLDN8 expression, distal colon",Sprague-Dawley rats [4]; vs vehicle control-treated,restored levels of CLDN8 expression above vehicle control-treated subjects
same,colonic score (0-12),Sprague-Dawley rats [4]; vs vehicle treated animals,reduced
